Source: patent US7888363B2, “Viral polymerase inhibitors” (Boehringer Ingelheim International GmbH, priority 2003, dated 2011)

Each compound was assayed against hepatitis C virus RNA dependant polymerase (NS5B) (Hepatitis C virus genotype 1b, UniProt P26663) (assay: Inhibition of NS5B RNA dependent RNA polymerase activity). Settings: Table 1; HCV NS5B polymerase.
Type: biochemical
Experimental: A suitable assay is described in the examples.
Inhibition of NS5B RNA Dependent RNA Polymerase Activity
The compounds of the invention were tested for inhibitory activity against the hepatitis C virus RNA dependant polymerase (NS5B), according to protocol described in WO 03/010141

Sequence of hepatitis C virus RNA dependant polymerase (NS5B) (P26663 2420-3010): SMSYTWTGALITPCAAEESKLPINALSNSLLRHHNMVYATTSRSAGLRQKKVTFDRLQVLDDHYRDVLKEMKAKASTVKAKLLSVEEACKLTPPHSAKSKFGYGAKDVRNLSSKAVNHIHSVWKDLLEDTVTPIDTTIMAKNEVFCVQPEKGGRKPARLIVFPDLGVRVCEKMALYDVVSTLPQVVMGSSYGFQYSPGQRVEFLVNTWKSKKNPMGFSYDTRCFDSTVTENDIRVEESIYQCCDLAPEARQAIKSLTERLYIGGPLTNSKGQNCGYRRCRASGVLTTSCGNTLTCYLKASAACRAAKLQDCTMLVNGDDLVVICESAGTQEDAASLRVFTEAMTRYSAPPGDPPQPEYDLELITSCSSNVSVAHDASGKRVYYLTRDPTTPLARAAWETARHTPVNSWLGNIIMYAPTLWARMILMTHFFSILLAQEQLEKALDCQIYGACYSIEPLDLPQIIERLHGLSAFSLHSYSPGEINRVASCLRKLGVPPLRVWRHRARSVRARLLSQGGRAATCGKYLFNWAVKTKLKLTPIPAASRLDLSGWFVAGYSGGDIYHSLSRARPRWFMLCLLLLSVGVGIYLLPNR

IC50, < 200 nM:
CN(C)C(=O)CN1CCN(C(=O)Cn2c(-c3ccoc3)c(C3CCCCC3)c3ccc(C(=O)O)cc32)CC1 [Example 1130]
CN(C)C1CCN(C(=O)Cn2c(-c3ccoc3)c(C3CCCCC3)c3ccc(C(=O)O)cc32)C1 (stereo not shown) [Example 1131]
CN(C)CC(=O)NNC(=O)Cn1c(-c2ccoc2)c(C2CCCCC2)c2ccc(C(=O)O)cc21 [Example 1132]
O=C(O)CN1CCN(C(=O)Cn2c(-c3ccc(Br)cn3)c(C3CCCCC3)c3ccc(C(=O)O)cc32)CC1 [Example 1139]

IC50, 200 to 1000 nM:
O=C(Cn1c(-c2ccc(Br)cn2)c(C2CCCCC2)c2ccc(C(=O)O)cc21)N[C@@H](Cc1ccc(O)cc1)C(=O)O [Example 1133]
CN1CCN(C(=O)Cn2c(-c3ccc(Br)cn3)c(C3CCCCC3)c3ccc(C(=O)O)cc32)CC1 [Example 1134]
O=C(O)c1ccc2c(C3CCCCC3)c(-c3ccc(Br)cn3)n(CC(=O)N3CCC(C(=O)O)CC3)c2c1 [Example 1135]
CN(C)C(=O)Cn1c(-c2ccc(Br)cn2)c(C2CCCCC2)c2ccc(C(=O)O)cc21 [Example 1136]
O=C(O)c1ccc2c(C3CCCCC3)c(-c3ccc(Br)cn3)n(CC(=O)N3CCC[C@H]3C(=O)O)c2c1 [Example 1137]
CN(CC(=O)O)C(=O)Cn1c(-c2ccc(Br)cn2)c(C2CCCCC2)c2ccc(C(=O)O)cc21 [Example 1138]
O=C(Cn1c(-c2ccc(Br)cn2)c(C2CCCCC2)c2ccc(C(=O)O)cc21)N[C@@H](Cc1c[nH]c2cc(O)ccc12)C(=O)O [Example 1140]
O=C(Cn1c(-c2ccc(Br)cn2)c(C2CCCCC2)c2ccc(C(=O)O)cc21)NNC(=O)NC[C@H]1CC[C@H](C(=O)O)CC1 [Example 1141]
CN(C)C(=O)Cn1c(-c2ccccn2)c(C2CCCCC2)c2ccc(C(=O)O)cc21 [Example 1142]

IC50, 1000 to 10000 nM:
CNC(=O)Cn1c(-c2ccccn2)c(C2CCCCC2)c2ccc(C(=O)O)cc21 [Example 1143]

Same assay, conditions: Table 2; HCV NS5B polymerase

IC50, < 200 nM:
O=C(NS(=O)(=O)c1ccccc1)c1ccc2c(C3CCCCC3)c(-c3ccoc3)n(CC(=O)N3CCOCC3)c2c1 [Example 2001]
CS(=O)(=O)NC(=O)c1ccc2c(C3CCCCC3)c(-c3ccoc3)n(CC(=O)N3CCOCC3)c2c1 [Example 2002]
O=C(NS(=O)(=O)Cc1ccccc1)c1ccc2c(C3CCCCC3)c(-c3ccoc3)n(CC(=O)N3CCOCC3)c2c1 [Example 2003]
O=C(NS(=O)(=O)c1ccc(Cl)s1)c1ccc2c(C3CCCCC3)c(-c3ccoc3)n(CC(=O)N3CCOCC3)c2c1 [Example 2004]
O=C(NS(=O)(=O)C(F)(F)F)c1ccc2c(C3CCCCC3)c(-c3ccoc3)n(CC(=O)N3CCOCC3)c2c1 [Example 2005]
COC(=O)c1ccccc1S(=O)(=O)NC(=O)c1ccc2c(C3CCCCC3)c(-c3ccoc3)n(CC(=O)N3CCOCC3)c2c1 [Example 2006]
O=C(NS(=O)(=O)c1ccc2ccccc2c1)c1ccc2c(C3CCCCC3)c(-c3ccoc3)n(CC(=O)N3CCOCC3)c2c1 [Example 2007]
O=C(NS(=O)(=O)c1ccc(Br)cc1)c1ccc2c(C3CCCCC3)c(-c3ccoc3)n(CC(=O)N3CCOCC3)c2c1 [Example 2008]
COc1ccc(S(=O)(=O)NC(=O)c2ccc3c(C4CCCCC4)c(-c4ccoc4)n(CC(=O)N4CCOCC4)c3c2)cc1 [Example 2009]
O=C(NS(=O)(=O)c1cccc(Cl)c1)c1ccc2c(C3CCCCC3)c(-c3ccoc3)n(CC(=O)N3CCOCC3)c2c1 [Example 2010]
O=C(NS(=O)(=O)c1ccccc1Br)c1ccc2c(C3CCCCC3)c(-c3ccoc3)n(CC(=O)N3CCOCC3)c2c1 [Example 2011]
O=C(NS(=O)(=O)c1ccccc1Cl)c1ccc2c(C3CCCCC3)c(-c3ccoc3)n(CC(=O)N3CCOCC3)c2c1 [Example 2012]
O=C(NS(=O)(=O)c1ccc(OC(F)(F)F)cc1)c1ccc2c(C3CCCCC3)c(-c3ccoc3)n(CC(=O)N3CCOCC3)c2c1 [Example 2013]
O=C(NS(=O)(=O)c1cc(F)ccc1F)c1ccc2c(C3CCCCC3)c(-c3ccoc3)n(CC(=O)N3CCOCC3)c2c1 [Example 2014]
O=C(NS(=O)(=O)c1ccc(F)cc1)c1ccc2c(C3CCCCC3)c(-c3ccoc3)n(CC(=O)N3CCOCC3)c2c1 [Example 2015]
Cc1ccccc1S(=O)(=O)NC(=O)c1ccc2c(C3CCCCC3)c(-c3ccoc3)n(CC(=O)N3CCOCC3)c2c1 [Example 2016]
O=C(NS(=O)(=O)c1ccc([N+](=O)[O-])cc1)c1ccc2c(C3CCCCC3)c(-c3ccoc3)n(CC(=O)N3CCOCC3)c2c1 [Example 2018]
O=C(NS(=O)(=O)c1ccc(Cl)cc1)c1ccc2c(C3CCCCC3)c(-c3ccoc3)n(CC(=O)N3CCOCC3)c2c1 [Example 2019]
Cc1c(S(=O)(=O)NC(=O)c2ccc3c(C4CCCCC4)c(-c4ccoc4)n(CC(=O)N4CCOCC4)c3c2)sc2ccc(F)cc12 [Example 2020]
Cc1ccc(S(=O)(=O)NC(=O)c2ccc3c(C4CCCCC4)c(-c4ccoc4)n(CC(=O)N4CCOCC4)c3c2)cc1 [Example 2022]
O=C(NS(=O)(=O)c1cccc2cccnc12)c1ccc2c(C3CCCCC3)c(-c3ccoc3)n(CC(=O)N3CCOCC3)c2c1 [Example 2024]
CC(C)(C)c1ccc(S(=O)(=O)NC(=O)c2ccc3c(C4CCCCC4)c(-c4ccoc4)n(CC(=O)N4CCOCC4)c3c2)cc1 [Example 2025]
O=C(NS(=O)(=O)C1CC1)c1ccc2c(C3CCCCC3)c(-c3ccoc3)n(CC(=O)N3CCOCC3)c2c1 [Example 2026]
O=C(NS(=O)(=O)CC(F)(F)F)c1ccc2c(C3CCCCC3)c(-c3ccoc3)n(CC(=O)N3CCOCC3)c2c1 [Example 2027]
O=C(NS(=O)(=O)c1c(Cl)sc(Cl)c1Br)c1ccc2c(C3CCCCC3)c(-c3ccoc3)n(CC(=O)N3CCOCC3)c2c1 [Example 2029]
O=C(NS(=O)(=O)c1cc(Cl)sc1Cl)c1ccc2c(C3CCCCC3)c(-c3ccoc3)n(CC(=O)N3CCOCC3)c2c1 [Example 2030]
Cc1nn(C)c(Cl)c1S(=O)(=O)NC(=O)c1ccc2c(C3CCCCC3)c(-c3ccoc3)n(CC(=O)N3CCOCC3)c2c1 [Example 2033]
Cc1noc(C)c1S(=O)(=O)NC(=O)c1ccc2c(C3CCCCC3)c(-c3ccoc3)n(CC(=O)N3CCOCC3)c2c1 [Example 2034]
O=C(NS(=O)(=O)c1cccc2nsnc12)c1ccc2c(C3CCCCC3)c(-c3ccoc3)n(CC(=O)N3CCOCC3)c2c1 [Example 2035]
O=C(NS(=O)(=O)c1c(F)cccc1F)c1ccc2c(C3CCCCC3)c(-c3ccoc3)n(CC(=O)N3CCOCC3)c2c1 [Example 2036]
O=C(NS(=O)(=O)c1c(Cl)nc2sccn12)c1ccc2c(C3CCCCC3)c(-c3ccoc3)n(CC(=O)N3CCOCC3)c2c1 [Example 2037]
CS(=O)(=O)c1ccccc1S(=O)(=O)NC(=O)c1ccc2c(C3CCCCC3)c(-c3ccoc3)n(CC(=O)N3CCOCC3)c2c1 [Example 2038]
O=C(NS(=O)(=O)c1cccc2cnccc12)c1ccc2c(C3CCCCC3)c(-c3ccoc3)n(CC(=O)N3CCOCC3)c2c1 [Example 2039]
COc1cc(C)ccc1S(=O)(=O)NC(=O)c1ccc2c(C3CCCCC3)c(-c3ccoc3)n(CC(=O)N3CCOCC3)c2c1 [Example 2040]
Cc1c(S(=O)(=O)NC(=O)c2ccc3c(C4CCCCC4)c(-c4ccoc4)n(CC(=O)N4CCOCC4)c3c2)cnn1-c1ccccc1 [Example 2042]
Cc1cc(C)c(S(=O)(=O)NC(=O)c2ccc3c(C4CCCCC4)c(-c4ccoc4)n(CC(=O)N4CCOCC4)c3c2)c(C)c1 [Example 2044]
O=C(NS(=O)(=O)C(Cl)(Cl)Cl)c1ccc2c(C3CCCCC3)c(-c3ccoc3)n(CC(=O)N3CCOCC3)c2c1 [Example 2045]

IC50, 200 to 1000 nM:
N#Cc1ccccc1S(=O)(=O)NC(=O)c1ccc2c(C3CCCCC3)c(-c3ccoc3)n(CC(=O)N3CCOCC3)c2c1 [Example 2032]
CC(C)c1cc(C(C)C)c(S(=O)(=O)NC(=O)c2ccc3c(C4CCCCC4)c(-c4ccoc4)n(CC(=O)N4CCOCC4)c3c2)c(C(C)C)c1 [Example 2043]

IC50, 1000 to 10000 nM:
CN(C(=O)c1ccc2c(C3CCCCC3)c(-c3ccoc3)n(CC(=O)N3CCOCC3)c2c1)S(=O)(=O)c1ccccc1 [Example 2023]

Same assay, conditions: Table 3; HCV NS5B polymerase

IC50, < 200 nM:
Nc1nc(-c2ccc(NC(=O)C3(NC(=O)c4ccc5c(C6CCCC6)c(-c6ccoc6)n(CC(=O)N6CCOCC6)c5c4)CCCNC3)cc2)cs1 (stereo not shown) [Example 3001]
NC(=O)[C@]1(NC(=O)c2ccc3c(C4CCCCC4)c(-c4ccoc4)n(CC(=O)N4CCOCC4)c3c2)CCNC1 [Example 3004]
CC(C)(NC(=O)Cn1c(-c2ccoc2)c(C2CCCCC2)c2ccc(C(=O)NC(C)(C)C(=O)Nc3ccc(/C=C/C(=O)O)cc3)cc21)C(=O)Nc1ccc(/C=C/C(=O)O)cc1 [Example 3005]
CN1CCN(C(=O)Cn2c(-c3ccccn3)c(C3CCCCC3)c3ccc(C(=O)NC(C)(C)C(=O)Nc4ccc(/C=C/C(=O)O)cc4)cc32)CC1 [Example 3006]
CN1CCN(C(=O)Cn2c(-c3ccccn3)c(C3CCCCC3)c3ccc(C(=O)NC4(C(=O)Nc5ccc(/C=C/C(=O)O)cc5)CCC4)cc32)CC1 [Example 3007]
O=C(O)/C=C/c1ccc(NC(=O)C2(NC(=O)c3ccc4c(C5CCCCC5)c(-c5ccccn5)n(CC(=O)N5CCCC5)c4c3)CCC2)cc1 [Example 3008]
O=C(O)/C=C/c1ccc(NC(=O)C2(NC(=O)c3ccc4c(C5CCCCC5)c(-c5ccccn5)n(CC(=O)N5CCCCC5)c4c3)CCC2)cc1 [Example 3009]
